Measurements as given in patent US20160122342A1, “ENHANCER OF ZESTE HOMOLOG 2 INHIBITORS” (GLAXOSMITHKLINE INTELLECTUAL PROPERTY (NO.2) LIMITED, priority 2013, published 2016).
Where two headings read alike, the source gives them in different places.

Key:
[1] = rcm bond
[2] = rcm bond, DCM, 25.0 °C
[3] = target: T1, EZH2 within the PRC2 complex (Homo sapiens, UniProt Q15910); assay: Assay Protocol 1: EZH2 methyltransferase scintillation proximity assay, mononucleosome substrate; format: biochemical; settings: Assay Protocol 1; SPA, 3H-SAM, Histone H3 of mononucleosome purified from HeLa cells; 5-member PRC2 complex; read-out: EZH2 IC50
T1 construct: FLAG; made in house; host or cells: Sf9 cells
T1 sequence (Q15910 whole entry): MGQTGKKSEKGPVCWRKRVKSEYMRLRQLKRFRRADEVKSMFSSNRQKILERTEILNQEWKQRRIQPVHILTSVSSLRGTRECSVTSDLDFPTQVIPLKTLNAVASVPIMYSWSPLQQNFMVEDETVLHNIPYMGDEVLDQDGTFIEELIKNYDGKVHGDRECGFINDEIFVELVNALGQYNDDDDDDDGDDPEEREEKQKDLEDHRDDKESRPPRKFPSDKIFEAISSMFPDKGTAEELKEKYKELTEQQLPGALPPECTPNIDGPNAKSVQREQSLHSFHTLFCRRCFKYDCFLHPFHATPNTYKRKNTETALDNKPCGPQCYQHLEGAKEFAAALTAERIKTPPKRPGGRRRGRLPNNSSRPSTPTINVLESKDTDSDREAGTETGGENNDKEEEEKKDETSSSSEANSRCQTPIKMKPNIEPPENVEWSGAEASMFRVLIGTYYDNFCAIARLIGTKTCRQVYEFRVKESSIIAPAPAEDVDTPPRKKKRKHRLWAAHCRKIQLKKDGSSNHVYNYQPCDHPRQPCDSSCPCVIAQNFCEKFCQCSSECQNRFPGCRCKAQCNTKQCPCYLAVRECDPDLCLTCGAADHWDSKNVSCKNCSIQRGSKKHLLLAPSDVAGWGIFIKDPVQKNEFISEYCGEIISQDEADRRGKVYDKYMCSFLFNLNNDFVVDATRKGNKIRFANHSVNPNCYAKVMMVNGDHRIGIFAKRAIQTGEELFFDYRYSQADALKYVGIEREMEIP
T1 sequence (O75530 whole entry partner): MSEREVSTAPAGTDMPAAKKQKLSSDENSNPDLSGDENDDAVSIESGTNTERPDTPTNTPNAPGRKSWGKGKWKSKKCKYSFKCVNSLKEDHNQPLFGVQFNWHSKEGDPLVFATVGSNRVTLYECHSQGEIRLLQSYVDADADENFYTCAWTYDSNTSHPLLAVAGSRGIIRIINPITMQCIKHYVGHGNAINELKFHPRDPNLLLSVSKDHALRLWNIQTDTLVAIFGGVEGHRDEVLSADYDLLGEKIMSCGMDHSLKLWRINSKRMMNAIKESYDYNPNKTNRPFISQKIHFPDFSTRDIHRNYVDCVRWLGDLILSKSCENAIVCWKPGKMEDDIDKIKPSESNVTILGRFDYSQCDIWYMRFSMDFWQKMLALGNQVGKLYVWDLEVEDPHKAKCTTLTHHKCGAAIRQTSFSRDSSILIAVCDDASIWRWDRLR
T1 sequence (Q15022 whole entry partner): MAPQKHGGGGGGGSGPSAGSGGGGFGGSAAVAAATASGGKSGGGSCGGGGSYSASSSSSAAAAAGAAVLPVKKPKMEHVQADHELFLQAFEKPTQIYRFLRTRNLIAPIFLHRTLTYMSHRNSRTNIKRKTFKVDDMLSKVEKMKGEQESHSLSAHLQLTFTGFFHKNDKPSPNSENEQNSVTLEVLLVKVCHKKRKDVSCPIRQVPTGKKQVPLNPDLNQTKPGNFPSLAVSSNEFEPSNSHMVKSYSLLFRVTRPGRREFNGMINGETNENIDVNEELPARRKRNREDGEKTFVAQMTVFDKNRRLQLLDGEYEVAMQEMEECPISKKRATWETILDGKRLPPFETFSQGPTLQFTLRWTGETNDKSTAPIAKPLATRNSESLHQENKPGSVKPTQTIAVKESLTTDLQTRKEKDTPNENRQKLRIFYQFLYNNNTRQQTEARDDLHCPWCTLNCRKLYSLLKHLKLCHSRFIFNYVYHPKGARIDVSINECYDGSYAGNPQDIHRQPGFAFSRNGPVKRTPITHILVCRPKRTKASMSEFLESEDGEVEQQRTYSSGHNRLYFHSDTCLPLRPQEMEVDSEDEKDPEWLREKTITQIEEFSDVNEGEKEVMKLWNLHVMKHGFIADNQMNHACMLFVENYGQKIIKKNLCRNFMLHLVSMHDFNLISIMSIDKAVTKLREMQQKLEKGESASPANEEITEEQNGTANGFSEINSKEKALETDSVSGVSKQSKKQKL
T1 sequence (Q09028 whole entry partner): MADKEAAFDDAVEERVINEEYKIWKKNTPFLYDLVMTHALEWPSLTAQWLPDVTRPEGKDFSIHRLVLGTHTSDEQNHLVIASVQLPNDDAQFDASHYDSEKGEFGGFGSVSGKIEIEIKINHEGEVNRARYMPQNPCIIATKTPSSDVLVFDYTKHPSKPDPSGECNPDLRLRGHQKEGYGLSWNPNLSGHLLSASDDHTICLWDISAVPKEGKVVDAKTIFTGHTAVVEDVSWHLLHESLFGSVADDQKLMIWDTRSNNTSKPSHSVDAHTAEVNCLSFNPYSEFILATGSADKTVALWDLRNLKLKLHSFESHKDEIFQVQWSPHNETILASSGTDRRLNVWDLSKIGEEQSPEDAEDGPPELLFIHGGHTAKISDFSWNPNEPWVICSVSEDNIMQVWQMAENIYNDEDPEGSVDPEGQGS
T1 sequence (Q6ZN18 whole entry partner): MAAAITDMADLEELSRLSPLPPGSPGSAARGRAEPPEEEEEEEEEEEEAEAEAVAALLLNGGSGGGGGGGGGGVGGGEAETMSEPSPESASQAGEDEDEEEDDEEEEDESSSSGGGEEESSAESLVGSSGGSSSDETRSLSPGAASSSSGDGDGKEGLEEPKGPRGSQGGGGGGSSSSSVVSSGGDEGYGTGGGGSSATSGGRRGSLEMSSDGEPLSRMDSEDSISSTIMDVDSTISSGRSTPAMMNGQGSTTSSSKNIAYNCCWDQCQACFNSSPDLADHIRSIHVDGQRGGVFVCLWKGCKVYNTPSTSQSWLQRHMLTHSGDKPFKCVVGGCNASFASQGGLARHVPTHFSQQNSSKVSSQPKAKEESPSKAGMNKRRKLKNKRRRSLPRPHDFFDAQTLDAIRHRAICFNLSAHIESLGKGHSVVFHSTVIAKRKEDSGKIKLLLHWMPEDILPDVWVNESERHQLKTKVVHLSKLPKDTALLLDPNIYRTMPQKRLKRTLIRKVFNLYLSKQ
Method: Compounds contained herein were evaluated for their ability to inhibit the methyltransferase activity of EZH2 within the PRC2 complex. […] Mononucleosomes were captured on SPA beads and the resulting signal is read on a ViewLux plate reader. • 1. Prepare 10 mM stock of compounds from solid in 100% DMSO. • 2. […] Dispense 100 nL of compound from the dilution plate into reaction plates (Grenier Bio-One, 384-well, Cat#784075). Prepare the following solutions: • 1. 50 mM Tris-HCl, pH 8: Per 1 L of base buffer, combine 1 M Tris-HCl, pH 8 (50 mL) and distilled water (950 mL). • 2. 1× Assay Buffer: […] SPA Bead Suspension: […] Per 10 mL of 2× Substrate Solution, combine 1× Assay Buffer (9728.55 uL), 800 ug/mL mononucleosomes (125 uL), 1 mM cold SAM (4 uL), and 7.02 uM 3H-SAM (142.45 uL; 0.55 mCi/mL) to provide a final concentration of 5 ug/mL nucleosomes, 0.2 uM cold SAM, and 0.05 uM 3H-SAM. • 6. 2.67× Quench/Bead Mixture: Per 10 mL of 2.67× Quench/Bead Mixture, combine ddH2O (9358 uL), 10 mM cold SAM (267 uL), 40 mg/mL Bead Suspension (375 uL) to provide a final concentration of 100 uM cold SAM and 0.5 mg/mL SPA beads. • 1. Dispense 100 nL/well of 100× Compound to test wells (as noted above). • 2. […] • 1. Dispense 5 uL/well of 1× Assay Buffer to column 18 (low control reactions). • 2. Dispense 5 uL/well of 2× Enzyme Solution to columns 1-17, 19-24. • 3. Spin assay plates for ˜1 minute at 500 rpm. • 4. Stack the assay plates, covering the top plate. • 5. Incubate the compound/DMSO with the enzyme for 30 minutes at room temperature. • 6. Dispense 5 uL/well of 2× Substrate Solution to columns 1-24. • 7. Spin assay plates for ˜1 minute at 500 rpm. • 8. Stack the assay plates, covering the top plate. • 9. Incubate the assay plates at room temperature for 1 hour. • 1. Dispense 5 uL/well of the 3× Quench/Bead Mixture to columns 1-24. • 2. Seal the top of each assay plate with adhesive TopSeal. • 3. Spin assay plates for ˜1 minute at 500 rpm. • 4. […] • 1. Read the assay plates on the Viewlux Plate Reader utilizing the 613 nm emission filter with a 300 s read time. Reagent addition can be done manually or with automated liquid handler. The final DMSO concentration in this assay is 1%. The positive control is in column 6; negative control is in column 18. Final starting concentration of compounds is 100 μM. Percent inhibition was calculated relative to the DMSO control for each compound concentration and the resulting values were fit using standard IC50 fitting parameters within the ABASE data fitting software package.

[4] = target: T1, EZH2 within the PRC2 complex; assay: Assay Protocol 2: EZH2 methyltransferase scintillation proximity assay, biotinylated histone H3 peptide substrate; format: biochemical; settings: SPA, 3H-SAM, biotinylated unmethylated histone H3K27 peptide substrate, 5-member PRC2 complex
Method in brief: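 PRC2-complexed EZH2 was run in 50 mM Tris-HCl pH 8, 2 mM MgCl2, 4 mM DTT and 0.001% Tween-20. It was added to a 2× mix of 10 uM biotinylated H3K27 peptide, 0.15 uM 3H-SAM and 2.85 uM cold SAM with streptavidin SPA beads. After 60 min at room temperature and a cold-SAM quench, IC50 was fitted from percent inhibition versus DMSO.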

[5] = from C=CCCc1cc(C)nc(OC)c1CNC(=O)c1cccc(N(CC)C2CCOCC2)c1CC=C, 12-membered ring, Grubbs II (2 x 20 mol%), DCM, 25.3 mM, 25.0 °C, 36.0 h
[6] = from C=CCCc1cc(C)nc(OC)c1CNC(=O)c1ccnc(Cl)c1CC=C, 12-membered ring, Grubbs II (10 mol%), DCM, 10.6 mM, 16.0 h

Row | Molecule | IC50 [3] | IC50 [4] | also measured
1 | CCN(c1cccc2c1C/C=C/CCc1cc(C)nc(OC)c1CNC2=O)C1CCC(F)(F)CC1 |  |  | ring closure, yield after HPLC ([1]; from C=CCCc1cc(C)nc(OC)c1CNC(=O)c1cccc(N(CC)C2CCC(F)(F)CC2)c1CC=C, 12-membered ring, Grubbs II (15 mol%), DCM, 32.1 mM, 25.0 °C, 16.0 h): 62%
2 | CCN(c1cccc2c1C/C=C/CCc1cc(C)nc(OC)c1CNC2=O)C1CCOCC1 |  |  | ring closure, yield after HPLC [1, 5]: 58%
3 | CCN(c1cccc2c1C/C=C\CCc1cc(C)nc(OC)c1CNC2=O)C1CCOCC1 |  |  | ring closure, yield after HPLC [1, 5]: 23%
4 | CCN(c1cccc2c1C/C=C\Cc1cc(C)nc(OC)c1CNC2=O)[C@H]1CC[C@H](NC(=O)OC(C)(C)C)CC1 |  |  | ring closure, yield after HPLC ([1]; from C=CCCc1cc(C)nc(OC)c1CNC(=O)c1cccc(N(CC)[C@H]2CC[C@H](NC(=O)OC(C)(C)C)CC2)c1CC=C, 11-membered ring, Hoveyda-Grubbs (17.5 mol%), DCE, 16.0 mM, 50.0 °C): 13.7%
5 | CCN(c1cccc2c1CC=CCCCCc1cc(C)nc(OC)c1CNC2=O)C1CCOCC1 |  |  | ring closure, isolated yield ([2]; from C=CCCCCc1cc(C)nc(OC)c1CNC(=O)c1cccc(N(CC)C2CCOCC2)c1CC=C, 14-membered ring, Grubbs II (10 mol%, then ca. 10 mg), 15.8 mM, 22.0 h): 73.1%
6 | COc1cc(Cl)cc2c1CC=CCCCc1cc(C)nc(OC)c1CNC2=O |  |  | ring closure, isolated yield ([2]; from C=CCCCc1cc(C)nc(OC)c1CNC(=O)c1cc(Cl)cc(OC)c1CC=C, 13-membered ring, Grubbs II (10 mol%), 19.6 mM, 16.0 h): 76%
7 | COc1cc(Cl)cc2c1CC=CCCc1cc(C)nc(OC)c1CNC2=O |  |  | ring closure, isolated yield ([2]; from C=CCCc1cc(C)nc(OC)c1CNC(=O)c1cc(Cl)cc(OC)c1CC=C, 12-membered ring, Grubbs II (10 mol%), 19.4 mM, 16.0 h): 69%
8 | COc1nc(C)cc2c1CNC(=O)c1ccnc(Cl)c1C/C=C/CC2 |  |  | ring closure, yield after HPLC [1, 6]: 37.3%
9 | COc1nc(C)cc2c1CNC(=O)c1ccnc(Cl)c1C/C=C\CC2 |  |  | ring closure, yield after HPLC [1, 6]: 18.3%
10 | CCN(c1cccc2c1C/C=C/CCc1cc(C)[nH]c(=O)c1CNC2=O)C1CCN(C(C)C)CC1 [Example 32, (E)-10-(ethyl(1-isopropylpiperidin-4-yl)amino)-3-methyl-5,6,15,16-tetrahydrobenzo[c]pyrido[4,3-j][1]azacyclododecine-1,14(2H,9H)-dione] | 0.05 µM | 0.158 µM | 
11 | CCN(c1cccc2c1C/C=C/CCc1cc(C)[nH]c(=O)c1CNC2=O)C1CCN(C)CC1 [Example 33, (E)-10-(ethyl(1-methylpiperidin-4-yl)amino)-3-methyl-5,6,15,16-tetrahydrobenzo[c]pyrido[4,3-j][1]azacyclododecine-1,14(2H,9H)-dione] | 0.04 µM | 0.2 µM | 
12 | CCN(c1cccc2c1C/C=C/CCc1cc(C)[nH]c(=O)c1CNC2=O)C1CCN(S(C)(=O)=O)CC1 [Example 34, (E)-10-(ethyl(1-(methylsulfonyl)piperidin-4-yl)amino)-3-methyl-5,6,15,16-tetrahydrobenzo[c]pyrido[4,3-j][1]azacyclododecine-1,14(2H,9H)-dione] | 0.063 µM | 0.126 µM | 
13 | CCN(c1cccc2c1C/C=C/CCc1cc(C)[nH]c(=O)c1CNC2=O)C1CCN(CCO)CC1 [Example 35, (E)-10-(ethyl(1-(2-hydroxyethyl)piperidin-4-yl)amino)-3-methyl-5,6,15,16-tetrahydrobenzo[c]pyrido[4,3-j][1]azacyclododecine-1,14(2H,9H)-dione] | 0.04 µM | 0.2 µM | 
14 | CCN(c1cccc2c1C/C=C/CCc1cc(C)[nH]c(=O)c1CNC2=O)[C@H]1CC[C@H](N)CC1 [Example 36, (E)-10-((trans-4-aminocyclohexyl)(ethyl)amino)-3-methyl-5,6,15,16-tetrahydrobenzo[c]pyrido[4,3-j][1]azacyclododecine-1,14(2H,9H)-dione] | 0.016 µM | 0.126 µM | 
15 | CCN(c1cccc2c1C/C=C/CCc1cc(C)[nH]c(=O)c1CNC2=O)[C@H]1CC[C@H](N(C)C)CC1 [Example 37, (E)-10-((trans-4-(dimethylamino)cyclohexyl)(ethyl)amino)-3-methyl-5,6,15,16-tetrahydrobenzo[c]pyrido[4,3-j][1]azacyclododecine-1,14(2H,9H)-dione] | 0.05 µM | 0.126 µM | 
16 | CCN(c1cccc2c1C/C=C/CNCc1cc(C)[nH]c(=O)c1CNC2=O)C1CCOCC1 [Example 38, (E)-11-(ethyl(tetrahydro-2H-pyran-4-yl)amino)-3-methyl-5,6,7,10,16,17-hexahydro-1H-benzo[h]pyrido[4,3-c][1,6]diazacyclotridecine-1,15(2H)-dione] | 0.1 µM | 0.158 µM | 
17 | CCN(c1cccc2c1C/C=C\CNCc1cc(C)[nH]c(=O)c1CNC2=O)C1CCOCC1 [Example 39, (Z)-11-(ethyl(tetrahydro-2H-pyran-4-yl)amino)-3-methyl-5,6,7,10,16,17-hexahydro-1H-benzo[h]pyrido[4,3-c][1,6]diazacyclotridecine-1,15(2H)-dione] | 1.26 µM | 2 µM | 
18 | CCN(c1cccc2c1C/C=C/CCCc1cc(C)[nH]c(=O)c1CNC2=O)C1CCNCC1 [Example 40, (E)-11-(ethyl(piperidin-4-yl)amino)-3-methyl-5,6,7,10,16,17-hexahydro-1H-benzo[c]pyrido[4,3-k][1]azacyclotridecine-1,15(2H)-dione] | 0.032 µM | 0.1 µM | 
19 | CCN(c1cccc2c1C/C=C/CCc1cc(C)[nH]c(=O)c1CNC2=O)C1CCN(CC2CC2)CC1 [Example 41, (E)-10-((1-(cyclopropylmethyl)piperidin-4-yl)(ethyl)amino)-3-methyl-5,6,15,16-tetrahydrobenzo[c]pyrido[4,3-j][1]azacyclododecine-1,14(2H,9H)-dione] | 0.04 µM | 0.04 µM | 
20 | CCN(c1cccc2c1C/C=C/CCc1cc(C)[nH]c(=O)c1CNC2=O)C1CCN(CCC(F)(F)F)CC1 [Example 43, (E)-10-(ethyl(1-(3,3,3-trifluoropropyl)piperidin-4-yl)amino)-3-methyl-5,6,15,16-tetrahydrobenzo[c]pyrido[4,3-j][1]azacyclododecine-1,14(2H,9H)-dione] | 0.063 µM | 0.2 µM | 
21 | CCN(c1cccc2c1C/C=C/CCc1cc(C)[nH]c(=O)c1CNC2=O)C1CCN(C(CO)CO)CC1 [Example 51, (E)-10-((1-(1,3-dihydroxypropan-2-yl)piperidin-4-yl)(ethyl)amino)-3-methyl-5,6,15,16-tetrahydrobenzo[c]pyrido[4,3-j][1]azacyclododecine-1,14(2H,9H)-dione] | 0.2 µM | 0.398 µM | 
22 | CCN(c1cccc2c1C/C=C\CCc1cc(C)[nH]c(=O)c1CNC2=O)C1CCNCC1 [Example 52, (Z)-10-(ethyl(piperidin-4-yl)amino)-3-methyl-5,6,15,16-tetrahydrobenzo[c]pyrido[4,3-j][1]azacyclododecine-1,14(2H,9H)-dione] | 0.631 µM | 2 µM | 
23 | CCN(c1cccc2c1CC=CCc1cc(C)[nH]c(=O)c1CNC2=O)C1CCNCC1 [Example 54, 9-(ethyl(piperidin-4-yl)amino)-3-methyl-5,8,14,15-tetrahydro-1H-benzo[c]pyrido[4,3-i][1]azacycloundecine-1,13(2H)-dione] | 3.98 µM | 10 µM | 
24 | (E)-11-(ethyl(1-isopropylpiperidin-4-yl)amino)-3-methyl-5,6,7,10,16,17-hexahydro-1H-benzo[c]pyrido[4,3-k][1]azacyclotridecine-1,15(2H)-dione [Example 42] | 0.02 µM | 0.158 µM | 
